Source: patent EP0561850B1, “7-SUBSTITUTED-6-FLUORO-1,4-DIHYDRO-4-OXO-QUINOLINE-3-CARBOXYLIC ACID COMPOUNDS USEFUL AS ANTIBACTERIAL AGENTS” (priority 1990, dated 1992)
≈ marks a conversion by molar mass, not a printed value. Like-named read-outs stand apart in the source and are kept apart here.

Assays:
[1] = system: Staphylococcus aureus S-127; assay: In vitro antimicrobial activity against aerobes, broth microdilution (NCCLS 1985); format: cell-based; conditions: S127, read after 16-18 hours
Method: (§1) For aerobic microorganisms, a cation supplemented Mueller Hinton Broth (BBL) was used whereas the Anaerobe Broth MIC (Difco) was used for anaerobic microorganisms. An agar Dilution method was employed for certain aerobic microorganisms using Mueller Hinton II Agar (BBL) and a Cathra multipoint inoculating device which delivered 10^4 cfu/spot of the inoculum on the agar surface. MICs were read after 16-18 hours and 48 hours of incubation in case of microbes growing aerobically and anaerobically respectively.

[2] = system: Methicillin Resistant S. aureus (MRSAs); assay: In vitro antimicrobial activity against methicillin resistant S. aureus; format: cell-based; conditions: Staphylococcus aureus; MRSA (6 C.I.), C.I. = Clinical Isolates
Method: as §1

[3] = system: Quinoline Resistant MRSAs (QRMRSAs); assay: In vitro antimicrobial activity against quinoline resistant MRSA; format: cell-based; conditions: Staphylococcus aureus; QRMRSA (8 C.I.), C.I. = Clinical Isolates
Method: as §1

Bacteroides fagilis AN-2 = assay: In vitro antimicrobial activity against anaerobes, broth microdilution; format: cell-based
From the text: as §1, with “The compounds of the invention display antibacterial activity when tested by the broth microdilution method as described in the NCCLS publications M7-A, M11-A and M17-P of the year 1985. For” for “For”
(§2) By use of the above method, the following minimum inhibitory concentration values (MICs in µg/ml) were obtained: Table 1, against microbes growing aerobically; Table 2, against microbes growing anaerobically; Table 3, against methicillin resistant Staphylococcus aureus and quinoline resistant-methicillin resistant Staphylococcus aureus.

[4] = system: Propionobacterium acne AN-17; assay: as above; format: cell-based
From the text: as §1, with “The compounds of the invention display antibacterial activity when tested by the broth microdilution method as described in the NCCLS publications M7-A, M11-A and M17-P of the year 1985. For” for “For”
as §2

[5] = system: Streptococcus intermedius AN-19; assay: as above; format: cell-based
From the text: as §1, with “The compounds of the invention display antibacterial activity when tested by the broth microdilution method as described in the NCCLS publications M7-A, M11-A and M17-P of the year 1985. For” for “For”
as §2

[6] = system: Peptostreptococcus asaccharolyticus AN-16; assay: as above; format: cell-based; conditions: Peptoniphilus asaccharolyticus
From the text: as §1, with “The compounds of the invention display antibacterial activity when tested by the broth microdilution method as described in the NCCLS publications M7-A, M11-A and M17-P of the year 1985. For” for “For”
as §2

[7] = system: Fusobacterium mortiferum AN-13; assay: as above; format: cell-based
From the text: as §1, with “The compounds of the invention display antibacterial activity when tested by the broth microdilution method as described in the NCCLS publications M7-A, M11-A and M17-P of the year 1985. For” for “For”
as §2

Sa 127M = assay: Microbroth dilution (MHB) method, NCCLS M7-A2; format: cell-based, Staphylococcus aureus; conditions: Staphylococcus aureus, inoculum 5 x 10^5 cfu/ml, 35 °C/18 hr, read-out: MIC
Method: (§3) The test organisms were obtained from ATCC and clinical laboratories. The 96-well microtitre plates containing […] of serially diluted test compounds in Mueller Hinton Broth (MHB) (conc. range 64-0.03 µg/ml) were inoculated with […] of bacterial suspension in MHB so that an inoculum size of 5 x 10^5 cfu/ml was achieved.
(§4) EC. (S- 63): Eschericia coli Ecl. (S- 130): Enterobacter cloacae Pa. (S- 67): Pseudomonas aeruginosa Kp. (S- 80): Klebsiella pneumoniae Pr.
(§5) Microbroth Dilution (MHB) method; Inoculum, 5 x 10^5 cfu/ml; Incubation 35 °C/18 hr

[8] = system: Klebsiella pneumoniae S-80; assay: Microbroth dilution (MHB) method, NCCLS M7-A2; format: cell-based; conditions: Klebsiella pneumoniae, S80
Method: as §3, §4, §5

[9] = system: Providencia rettgeri S-121; assay: Microbroth dilution (MHB) method, NCCLS M7-A2; format: cell-based; conditions: Providencia rettgeri, S121, Pr S-121, inoculum 5 x 10^5 cfu/ml, 35 °C/18 hr, read-out: MIC
Method: as §3, §4, §5

[10] = system: Pseudomonas aeruginosa S-67; assay: Microbroth dilution (MHB) method, NCCLS M7-A2; format: cell-based; conditions: Pseudomonas aeruginosa, S67
Method: as §3, §4, §5

Eschericia coli S-63 = assay: Microbroth dilution (MHB) method, NCCLS M7-A2; format: cell-based; conditions: Ec S-63, inoculum 5 x 10^5 cfu/ml, 35 °C/18 hr, read-out: MIC
Method: as §3, §4, §5

[11] = AN2, Bacteroides fagilis AN-2, anaerobes, read after 48 hours, read-out: MIC
[12] = Propionobacterium acne AN-17, anaerobes, read after 48 hours, read-out: MIC
[13] = AN19, Streptococcus intermedius AN-19, anaerobes, read after 48 hours, read-out: MIC
[14] = AN16, Peptostreptococcus asaccharolyticus AN-16, anaerobes, read after 48 hours, read-out: MIC
[15] = AN13, Fusobacterium mortiferum AN-13, anaerobes, read after 48 hours, read-out: MIC

| Structure (SMILES) | MIC [1] [µg/mL] | MIC [2] [µg/mL] | MIC [3] [µg/mL] | MIC (Bacteroides fagilis AN-2; [11]) [µg/mL] | MIC [4, 12] [µg/mL] | MIC [5, 13] [µg/mL] | MIC [6, 14] [µg/mL] | MIC [7, 15] [µg/mL] | further results |
| --- | --- | --- | --- | --- | --- | --- | --- | --- | --- |
| C[C@@H]1CN(c2c(F)c(N)c3c(=O)c(C(=O)O)cn(C4CC4)c3c2F)C[C@H](C)N1 [Sparfloxacin, reference compound] | 0.06 (≈ 0.153 µM) | 0.03 to 0.12 (≈ 0.0765 to 0.306 µM) | 4 to 16 (≈ 10.2 to 40.8 µM) | 2 (≈ 5.1 µM) | 1 (≈ 2.55 µM) | 0.5 (≈ 1.27 µM) | 4 (≈ 10.2 µM) | 0.5 (≈ 1.27 µM) | – |
| O=C(O)c1cn(C2CC2)c2cc(N3CCNCC3)c(F)cc2c1=O [Ciprofloxacin, reference compound] | – | – | – | – | – | – | – | – | MIC (Sa 127M): 8 µg/mL (≈ 24.1 µM); MIC (Bacteroides fagilis AN-2; Bacteroides, AN2, 48 h): 16 µg/mL (≈ 48.3 µM); MIC ([4]; 48 h): 0.5 µg/mL (≈ 1.51 µM); MIC ([5]; Streptococcus intermedius, AN19, 48 h): 1 µg/mL (≈ 3.02 µM); MIC ([6]; AN16, 48 h): 4 µg/mL (≈ 12.1 µM); MIC ([7]; Fusobacterium mortiferum, AN13, 48 h): 16 µg/mL (≈ 48.3 µM); MIC [8]: 0.015 µg/mL (≈ 0.0453 µM); MIC [9]: 0.015 µg/mL (≈ 0.0453 µM); MIC [10]: 0.25 µg/mL (≈ 0.754 µM); MIC (Eschericia coli S-63): ≤ 0.008 µg/mL |
| Nc1c(F)c(N2CCC(n3ccnn3)C2)c(F)c2c1c(=O)c(C(=O)O)cn2C1CC1 (centres unmarked) [Example 11, 5-Amino-1-cyclopropyl-6,8-difluoro-7-[3-(1,2,3-triazol-1-yl)-pyrrolidin-1-yl]-1,4-dihydro-4-oxo-quinoline-3-carboxylic acid] | – | 0.004 to 0.008 (≈ 0.00961 to 0.0192 µM) | 0.5 to 2 (≈ 1.2 to 4.8 µM) | 1 (≈ 2.4 µM) | ≤ 0.03 | 0.06 (≈ 0.144 µM) | 0.06 (≈ 0.144 µM) | 0.06 (≈ 0.144 µM) | – |
| NC1CCN(c2nc3c(cc2F)c(=O)c(C(=O)O)cn3-c2ccc(F)cc2F)C1 (centres unmarked) [Tosufloxacin, reference compound] | – | 0.015 to 0.03 (≈ 0.0371 to 0.0742 µM) | 2 to 16 (≈ 4.95 to 39.6 µM) | – | – | – | – | – | – |
| Nc1c(F)c(N2CC[C@H](n3ccnn3)C2)c(F)c2c1c(=O)c(C(=O)O)cn2C1CC1 [Example 12, 5-Amino-1-cyclopropyl-6,8-difluoro-7-[3S-(1,2,3-triazol-1-yl)-pyrrolidin-1-yl]-1,4-dihydro-4-oxo-quinoline-3-carboxylic acid] | 0.008 (≈ 0.0192 µM) | 0.004 to 0.008 (≈ 0.00961 to 0.0192 µM) | 0.5 to 2 (≈ 1.2 to 4.8 µM) | 1 (≈ 2.4 µM) | 0.06 (≈ 0.144 µM) | 0.12 (≈ 0.288 µM) | 0.06 (≈ 0.144 µM) | 0.06 (≈ 0.144 µM) | – |

Second part, led by results:

| MIC [1] [µg/mL] | MIC [2] [µg/mL] | MIC [3] [µg/mL] | MIC (Bacteroides fagilis AN-2; [11]) [µg/mL] | MIC [4, 12] [µg/mL] | MIC [5, 13] [µg/mL] | MIC [6, 14] [µg/mL] | MIC [7, 15] [µg/mL] | Structure (SMILES) | further results |
| --- | --- | --- | --- | --- | --- | --- | --- | --- | --- |
| 0.015 (≈ 0.0307 µM) | 0.008 to 0.015 (≈ 0.0164 to 0.0307 µM) | 1 to 16 (≈ 2.05 to 32.8 µM) | – | – | – | – | – | Nc1c(F)c(N2CC[C@H](n3ccnn3)C2)c(F)c2c1c(=O)c(C(=O)O)cn2-c1ccc(F)cc1F [Example 15] | – |
| ≤ 0.015 | 0.008 to 0.03 (≈ 0.0164 to 0.0614 µM) | 1 to 8 (≈ 2.05 to 16.4 µM) | > 64 | 0.06 (≈ 0.123 µM) | 0.06 (≈ 0.123 µM) | 0.12 (≈ 0.246 µM) | 2 (≈ 4.09 µM) | Nc1c(F)c(N2CCC(n3ccnn3)C2)c(F)c2c1c(=O)c(C(=O)O)cn2-c1ccc(F)cc1F (centres unmarked) [Example 14, 5-Amino-1-(2,4-difluorophenyl)-6,8-difluoro-7-[3-(1,2,3-triazol-1-yl)pyrrolidin-1-yl]-1,4-dihydro-4-oxo-quinoline-3 carboxylic acid] | – |
| 0.015 (≈ 0.0307 µM) | – | – | – | – | – | – | – | Nc1c(F)c(N2CC[C@@H](n3ccnn3)C2)c(F)c2c1c(=O)c(C(=O)O)cn2-c1ccc(F)cc1F [Example 16, 5-Amino-1-(2,4-difluorophenyl)-6,8-difluoro-7-[3R-(1,2,3-triazol-1-yl)-pyrrolidin-1-yl]-1,4-dihydro-4-oxo-quinoline-3-carboxylic acid] | – |
